Laboratory results: patent EP4772514A1, “MACROCYCLIC COMPOUNDS, PREPARATION METHOD THEREFOR, AND USE THEREOF” (Genfleet Therapeutics (Shanghai) Inc., priority 2023, dated 2025)
Like-named read-outs stand apart in the source and are kept apart here.

Columns and labels:
Format in all cases: cell-based
p-ERK [1] = experiment: Cell p-ERK assay (HTRF, Advance ERK phospho-T202/Y204 kit) in NCI-H441 cells; conditions: NCI-H441, human non-small cell lung cancer cell strain, KRAS G12V mutation, 3 h compound incubation
Method in brief: (§1)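 AsPC-1 (KRAS G12D) or NCI-H441 (KRAS G12V) cells seeded overnight, then treated 3 h at 37 °C with compound (0.1% DMSO) in RPMI-1640/10% FBS. Lysates assayed for ERK phospho-T202/Y204 by HTRF; inhibition vs DMSO and blank wells, IC50 from four-parameter fit.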

AsPC-1 cells = experiment: 3D cell proliferation assay (CellTiter Glo-3D) in AsPC-1 cells; conditions: AsPC-1, human pancreatic cancer cell strain, KRAS G12D mutation, 3D culture, 2% FBS, 5 days, read-out: AsPC-1 AP IC50
Method in brief: (§2)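 After a 5-day exposure at 37 °C to 3.16-fold serial dilutions (final DMSO 0.1%) in 2% FBS RPMI-1640, ATP luminescence (CellTiter-Glo 3D) was read. Cells were AsPC-1 (KRAS G12D) or NCI-H441 (KRAS G12V), 800 per well; inhibition used DMSO and medium-only controls, with four-parameter curve fitting giving IC50.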

NCI-H441 cells = experiment: 3D cell proliferation assay (CellTiter Glo-3D) in NCI-H441 cells; conditions: NCI-H441, human lung cancer cell strain, KRAS G12V mutation, 3D culture, 2% FBS, 5 days, read-out: H441 AP IC50
Method in brief: as §2

p-ERK [2] = experiment: Cell p-ERK assay (HTRF, Advance ERK phospho-T202/Y204 kit) in AsPC-1 cells; conditions: AsPC-1, human pancreatic cancer cell strain, KRAS G12D mutation, 3 h compound incubation
Method in brief: as §1

Molecule	IC50 (p-ERK [1]; Homo sapiens, NCI-H441, 3 h) [nM]	IC50 (AsPC-1 cells; ASPC1, 120 h) [nM]	IC50 (NCI-H441 cells; Homo sapiens, NCI-H441, 120 h) [nM]	IC50 (p-ERK [2]; ASPC1) [nM]	IC50 (p-ERK [1]) [nM]	IC50 (AsPC-1 cells) [nM]	IC50 (NCI-H441 cells) [nM]	IC50 (p-ERK [2]) [nM]
CCn1cc2c(c1-c1cc(C#CCN3CCC(C#N)(CN)CC3)cnc1[C@H](C)OC)CC(C)(C)COC(=O)[C@@H]1CCCN(N1)C(=O)[C@@H](NC(=O)[C@H]1[C@H](C)[C@@H]1C)Cc1nc(cs1)/C=C/2 (atropisomer, axis not shown; (Ra)) [Compound Z65]	0.58	0.1	0.17	0.14	–	–	–	–
CO[C@@H](C)c1ncc(C#CCN2CCS(=O)(=O)CC2)cc1-c1c2c(nn1C(C)C)/C=C/c1csc(n1)C[C@H](NC(=O)[C@H]1[C@H](C)[C@@H]1C)C(=O)N1CCC[C@H](N1)C(=O)OCC(C)(C)C2 (atropisomer, axis not shown) [Compound Z15A, (1r,2R,3S)-N-((4^2Z,8^3S,2E,6S)-1^5-(5-(3-(1,1-dioxidothiomorpholino)prop-1-yn-1-yl)-2-((S)-1-methoxyethyl)pyridin-3-yl)-1^1-isopropyl-12,12-dimethyl-7,9-dioxo-8^1,8^2,8^3,8^4,8^5 3^6-hexahydro-1^1H-10-oxa-4(4,2)-thiazola-8(1,3)-pyridazina-1(3,4)-pyrrolacyclotridecaphan-2-en-6-yl)-2,3-dimethylcyclopropane-1-carboxamide]	7.99	22.7	7.63	30	–	–	–	–
CO[C@@H](C)c1ncc(C#CCN2CCS(=O)(=O)CC2)cc1-c1c2c(cn1C(C)C)/C=C/c1csc(n1)C[C@H](NC(=O)[C@H]1[C@H](C)[C@@H]1C)C(=O)N1CCC[C@H](N1)C(=O)OCC(C)(C)C2 (single isomer, unassigned) [Compound Z10]	0.83	0.56	0.42	1.2	–	–	–	–
CCn1cc2c(c1-c1cc(N3CCN(C)CC3)cnc1[C@H](C)OC)CC(C)(C)COC(=O)[C@@H]1CCCN(N1)C(=O)[C@@H](NC(=O)[C@H]1[C@H](C)[C@@H]1C)Cc1nc(cs1)/C=C/2 (single isomer, unassigned) [Compound Z8]	4.74	2.37	2.39	4.98	–	–	–	–
CCn1cc2c(c1-c1cc(C#CCN3CCOCC3)cnc1[C@H](C)OC)CC(C)(C)COC(=O)[C@@H]1CCCN(N1)C(=O)[C@@H](NC(=O)[C@H]1[C@H](C)[C@@H]1C)Cc1nc(cs1)/C=C/2 (atropisomer, axis not shown; (Ra)) [Compound Z172, (1r,2R,3S)-N-((4^2Z, 8^1S, 2E, 6S)-1^1-ethyl-(Ra)-1^5-(2-((S)-1-methoxyethyl)-5-(3-morpholinoprop-1-yn-1-yl)pyridin-3-yl)-12,12-dimethyl-7,9-dioxo-8^1,8^2,8^3,8^4,8^5,8^6-hexahydro-1^1H-10-oxa-4(4,2)-thiazola-8(1,3)-pyridazina-1(3,4)-pyrrolacyclotridecaphan-2-en-6-yl)-2,3-dimethylcyclopropane-1-carboxamide]	0.75	0.4	0.41	0.74	–	–	–	–
(1r,2R,3S)-N-((4^2Z,8^3R,2E,6R)-1^1-ethyl-(Sa)-1^5-(2-((S)-1-methoxyethyl)-5-(4-methylpiperazin-1-yl)pyridin-3-yl)-12,12-dimethyl-7,9-dioxo-8^1,8^2,8^3,8^4,8^5,8^6-hexahydro-1^1H-10-oxa-4(4,2)-thiazola-8(1,3)-pyridazina-1(3,4)-pyrrolacyclotridecaphan-2-en-6-yl)-2,3-dimethylcyclopropane-1-carboxamide [Compound Z8-1]	–	–	–	–	98.6	64.3	62.7	103
CCn1cc2c(c1-c1cc(N3CCN(C)CC3)cnc1[C@H](C)OC)CC(C)(C)COC(=O)[C@@H]1CCCN(N1)C(=O)[C@@H](NC(=O)[C@H]1[C@H](C)[C@@H]1C)Cc1nc(cs1)/C=C/2 (atropisomer, axis not shown) [Compound Z8A, (1r,2S,3R)-N-((4^2Z,8^3R,2E,6R)-1^1-ethyl-1^5-(2-((S)-1-methoxyethyl)-5-(4-methylpiperazin-1-yl)pyridin-3-yl)-12,12-dimethyl-7,9-dioxo-8^1,8^2,8^3,8^4,8^5,8^6-hexahydro-1^1H-10-oxa-4(4,2)-thiazola-8(1,3)-pyridazina-1(3,4)-pyrrolacyclotridecaphan-2-en-6-yl)-2,3-dimethylcyclopropane-1-carboxamide]	8.08	3.71	3.98	8.19	–	–	–	–
CCn1cc2c(c1-c1cc(C#CCN3CCC(C#N)(CO)CC3)cnc1[C@H](C)OC)CC(C)(C)COC(=O)[C@@H]1CCCN(N1)C(=O)[C@@H](NC(=O)[C@H]1[C@@H]3COC[C@@H]31)Cc1nc(cs1)/C=C/2 (atropisomer, axis not shown; (Ra)) [Compound Z104, (1R,5S,6r)-N-((4^2Z,8^3S,2E,6S)-(Ra)-1^5-(5-(3-(4-cyano-4-(hydroxymethyl)piperidin-1-yl)prop-1-yn-1-yl)-2-((S)-1-methoxyethyl)pyridin-3-yl)-1^1ethyl-12,12-dimethyl-7,9-dioxo-8^1,8^2,8^3,8^4,8^5,8^6-hexahydro-1^1H-10-oxa-4(4,2)-thiazola-8(1,3)-pyridazina-1(3,4)-pyrrolacyclotridecaphan-2-en-6-yl)-3-oxabicyclo[3.1.0]hexane-6-carboxamide]	0.47	0.19	0.14	0.17	–	–	–	–

Continued by falling IC50 (p-ERK [1]; Homo sapiens, NCI-H441, 3 h), values first:

IC50 (p-ERK [1]; Homo sapiens, NCI-H441, 3 h) [nM]	IC50 (AsPC-1 cells; ASPC1, 120 h) [nM]	IC50 (NCI-H441 cells; Homo sapiens, NCI-H441, 120 h) [nM]	IC50 (p-ERK [2]; ASPC1) [nM]	IC50 (p-ERK [1]) [nM]	IC50 (AsPC-1 cells) [nM]	IC50 (NCI-H441 cells) [nM]	IC50 (p-ERK [2]) [nM]	Molecule
0.42	0.1	0.12	0.4	–	–	–	–	CCn1c(F)c2c(c1-c1cc(C#CCN3CCC(C#N)CC3)cnc1[C@H](C)OC)CC(C)(C)COC(=O)[C@@H]1CCCN(N1)C(=O)[C@@H](NC(=O)[C@H]1[C@H](C)[C@@H]1C)Cc1nc(cs1)/C=C/2 (atropisomer, axis not shown; (Ra)) [Compound Z139, (1r, 2R, 3S)-N-((4^2Z, 8^3S,2E,6S)-(Ra)-1^5-(5-(3-(4-cyanopiperidin-1-yl)prop-1-yn-1-yl)-2-((S)-1-methoxyethyl)pyridin-3-yl)-1^1-ethyl-1^2-fluoro-12,12-dimethyl-7,9-dioxo-8^1,8^1,8^1,8^4,8^5,8^6-hexahydro-1^1H-10-oxa-4(4,2)-thiazola-8(1,3)-pyridazina-1(3,4)-pyrrolacyclotridecaphan-2-en-6-yl)-2,3-dimethylcyclopropane-1-carboxamide]
0.32	0.05	0.11	0.08	–	–	–	–	CCn1cc2c(c1-c1cc(C#CCN3CCC(C#N)(CO)CC3)cnc1[C@H](C)OC)CC(C)(C)COC(=O)[C@@H]1CCCN(N1)C(=O)[C@@H](NC(=O)[C@H]1[C@H](C)[C@@H]1C)Cc1nc(cs1)/C=C/2 (atropisomer, axis not shown; (Ra)) [Compound Z103, (1r,2R,3S)-N-((4^2Z,8^3S,2E,6S)-(Ra)-1^5-(5-(3-(4-cyano-4-(hydroxymethyl)piperidin-1-yl)prop-1-yn-1-yl)-2-((S)-1-methoxyethyl)pyridin-3-yl)-1^1-ethyl-12,12-dimethyl-7,9-dioxo-8^1,8^2,8^3,8^4,8^5,8^6-hexahydro-1^1H-10-oxa-4(4,2)-thiazola-8(1,3)-pyridazina-1(3,4)-pyrrolacyclotridecaphan-2-en-6-yl)-2,3-dimethylcyclopropane-1-carboxamide]
0.2	0.16	0.18	0.24	–	–	–	–	CCn1c(F)c2c(c1-c1cc(C#CCN3CCS(=O)(=O)CC3)cnc1[C@H](C)OC)CC(C)(C)COC(=O)[C@@H]1CCCN(N1)C(=O)[C@@H](NC(=O)[C@H]1[C@H](C)[C@@H]1C)Cc1nc(cs1)/C=C/2 (atropisomer, axis not shown; (Ra)) [Compound Z80, (1r,2R,3S)-N-((4^2Z,8^3S,2E,6S)-(Ra)-1^5-(5-(3-(1,1-dioxidothiomorpholino)prop-1-yn-1-yl)-2-((S)-1-methoxyethyl)pyridin-3-yl)-1^1-ethyl-1^2-fluoro-12,12-dimethy^l-7,9-dioxo-8^1,8^2,8^3,8^4,8^5,8^6-hexahydro-1^1H-10-oxa-4(4,2)-thiazola-8(1,3)-pyridazina-1(3,4)-pyrrolacyclotridecaphan-2-en-6-yl)-2,3-dimethylcyclopropane-1-carboxamide]
0.17	0.08	0.14	0.13	–	–	–	–	CCn1cc2c(c1-c1cc(C#CCN3CCC(C#N)CC3)cnc1[C@H](C)OC)CC(C)(C)COC(=O)[C@@H]1CCCN(N1)C(=O)[C@@H](NC(=O)[C@H]1[C@H](C)[C@@H]1C)Cc1nc(cs1)/C=C/2 (atropisomer, axis not shown; (Ra)) [Compound Z49, (1r,2R,3S)-N-((4 ^2Z,8^3S,2E,6S)-(Ra)-1^5-(5-(3-(4-cyanopiperidin-1-yl)prop-1-yn-1-yl)-2-((S)-1-methoxyethyl)pyridin-3-yl)-1^1-ethyl-12,12-dimethyl-7,9-dioxo-8^1,8^2,8^3,8^4,8^5,8^6-hexahydro-1^1H-10-oxa-4(4,2)-thiazola-8(1,3)-pyridazina-1(3,4)-pyrrolacyclotridecaphan-2-en-6-yl)-2,3-dimethylcyclopropane-1-carboxamide]
